Assay results reported in paper PMC3958483, “Fine Specificity and Molecular Competition in SLAM Family Receptor Signalling” (PLoS ONE, 2014).
Read-outs that look alike come from different tables or passages of the source. Non-standard residues stand in square brackets, D forms with d. Residues, ends and D or L forms follow the SMILES beside them. *: point of attachment. Biotin = O=C1N[C@H]2[C@H](CS[C@H]2CCCCC(=O)*)N1; pY = N[C@@H](Cc1ccc(OP(=O)(O)O)cc1)C(=O)O

Experiments:
[1] = biological target: T1, PLCγ2 (SH2-SH2-SH3) (Homo sapiens, UniProt P16885); assay: SPR binding of PLCγ2 SH2-SH2-SH3 to immobilised phosphopeptides; settings: KD (Figure 7B), 37°C, ten two-fold dilutions, top concentration 1 μM, one-site specific binding model, curve shown in Figure 7B
T1 construct: PLCγ2 (Swiss-Prot: P16885, aa 519–838); 6xHis (N); made in house; host or cells: E. coli BL21(DE3)pLysS
T1 sequence (P16885 519-838): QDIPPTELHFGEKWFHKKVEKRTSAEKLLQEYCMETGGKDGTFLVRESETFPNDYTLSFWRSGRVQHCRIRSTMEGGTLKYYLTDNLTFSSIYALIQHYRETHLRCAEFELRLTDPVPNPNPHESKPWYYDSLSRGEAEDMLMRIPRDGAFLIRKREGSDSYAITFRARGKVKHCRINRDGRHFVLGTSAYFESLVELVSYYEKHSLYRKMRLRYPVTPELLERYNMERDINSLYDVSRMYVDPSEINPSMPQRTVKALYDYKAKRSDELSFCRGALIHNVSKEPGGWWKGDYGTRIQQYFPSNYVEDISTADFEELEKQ
Source text: (§1) Biotinylated EAT-2 was produced by expression of full length human EAT-2 with a C-terminal BirA tag ([…]) in the E coli expression vector pTrcHisA. Constructs encoding the 6xHis-tagged tandem SH2 domains plus the SH3 domains of PLCγ1 (Swiss-Prot: P19174, aa 536–863) and PLCγ2 (Swiss-Prot: P16885, aa 519–838) were generated in pTrcHisA (5′ joining sequence with BglII site underlined: gag atc tcc translates as EIS). The molecular weight (MW) and theoretical extinction coefficients (EC) of recombinant PLCγ1 and PLCγ2 SH2-SH2-SH3 domains were PLCγ1; MW = 42531, EC = 63,830 M^−1 cm^−1 and PLCγ2; MW = 42415, EC = 67,270 M^−1 cm^−1.
(§2) Soluble recombinant proteins were produced in BL21(DE3)pLysS E. coli (Calbiochem) at 37°C in 2TY medium and induced at OD 600 = 0.6 with 0.1 mM IPTG for 4 h or in 2XYT auto-induction (Formedium) medium overnight. Bacterial pellets were resuspended in ∼0.1 volume 10 mM HEPES pH7.4, 150 mM NaCl and used immediately or stored at −20°C in 10 ml aliquots. His-tag mediated protein purification was performed on a Co^2+ or Ni^2+ column by standard protocols. […]
(§3) Measurements of protein-protein affinity were performed on BIAcore 3000 and T200 systems using CM5 or biotin capture chips (GE Healthcare Ltd, UK). […] Equilibrium binding coefficients and dissociation and association rates were calculated using BIAevaluation and/or GraphPad Prism 5.4 software. […]

[2] = biological target: T2, PLCγ1 (SH2-SH2-SH3) (Homo sapiens, UniProt P19174); assay: SPR binding of PLCγ1 SH2-SH2-SH3 to immobilised phosphopeptides; settings: 37°C, ten two-fold dilutions, top concentration 1 μM, one-site specific binding model, curve shown in Figure 7B
T2 construct: PLCγ1 (Swiss-Prot: P19174, aa 536–863); 6xHis (N); made in house; host or cells: E. coli BL21(DE3)pLysS
T2 sequence (P19174 536-863): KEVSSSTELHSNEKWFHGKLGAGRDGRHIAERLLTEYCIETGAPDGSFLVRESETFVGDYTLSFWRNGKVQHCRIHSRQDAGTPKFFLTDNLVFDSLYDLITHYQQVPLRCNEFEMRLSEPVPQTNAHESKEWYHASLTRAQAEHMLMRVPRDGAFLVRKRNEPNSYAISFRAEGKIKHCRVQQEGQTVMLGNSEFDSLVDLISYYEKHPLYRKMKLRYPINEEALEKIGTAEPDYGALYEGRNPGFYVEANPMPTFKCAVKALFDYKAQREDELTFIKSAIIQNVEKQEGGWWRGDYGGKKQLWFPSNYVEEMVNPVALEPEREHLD
Source text: as §1, §2, §3

[3] = biological target: T3, EAT-2 (Homo sapiens, UniProt O14796); assay: SPR binding of EAT-2 to immobilised phosphopeptides; settings: 37°C
T3 construct: His-tag; made in house; host or cells: E. coli BL21(DE3)pLysS
T3 sequence (O14796 1-132): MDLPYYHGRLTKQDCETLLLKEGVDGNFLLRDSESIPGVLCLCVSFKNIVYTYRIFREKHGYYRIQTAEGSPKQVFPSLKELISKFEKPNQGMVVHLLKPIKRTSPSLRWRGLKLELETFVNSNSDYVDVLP
Source text: as §1
Soluble recombinant proteins were produced in BL21(DE3)pLysS E. coli (Calbiochem) at 37°C in 2TY medium and induced at OD 600 = 0.6 with 0.1 mM IPTG for 4 h or in 2XYT auto-induction (Formedium) medium overnight. Bacterial pellets were resuspended in ∼0.1 volume 10 mM HEPES pH7.4, 150 mM NaCl and used immediately or stored at −20°C in 10 ml aliquots. His-tag mediated protein purification was performed on a Co^2+ or Ni^2+ column by standard protocols. […] Where applicable, proteins were stored frozen in 10–25 mM HEPES pH 7.4, 200–300 mM NaCl (pH 7.4).All proteins were purified by size exclusion chromatography immediately prior to SPR analysis.
Measurements of protein-protein affinity were performed on BIAcore 3000 and T200 systems using CM5 or biotin capture chips (GE Healthcare Ltd, UK). Streptavidin was coupled to CM5 sensor chips using standard NHS/EDC chemical linkage, followed by immobilization of biotinylated peptides. The levels of peptide immobilized were approximately 25 and 50 response units respectively of single and tandem tyrosine motifs to facilitate saturating binding and limitation of “bridging” [22], [45]. Purified recombinant proteins were passed over the immobilized peptides at a range of concentrations in HBS-EP buffer, 10 mM HEPES pH 7.4, 150 mM NaCl, 3.4 mM EDTA, 0.005% surfactant, P20. Equilibrium binding coefficients and dissociation and association rates were calculated using BIAevaluation and/or GraphPad Prism 5.4 software.
The specificities of their SH2 domains overlap, introducing the concept of competition between them for ITSMs in cells where they are co-expressed, including NK cells.

[4] = biological target: T4, SHIP SH2 from SHIP-1 (Homo sapiens, UniProt Q92835); assay: SPR binding of SHIP SH2 domain to immobilised phosphopeptides; settings: 37°C, equilibrium binding analysis
T4 construct: the single SH2 domain from SHIP-1; His-tag; made in house; host or cells: E. coli BL21(DE3)pLysS
T4 sequence (Q92835 5-101 limits assumed): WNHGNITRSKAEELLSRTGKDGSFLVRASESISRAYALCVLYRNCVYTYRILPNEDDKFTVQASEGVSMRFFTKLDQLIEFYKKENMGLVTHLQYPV
Source text: as §1
Measurements of protein-protein affinity were performed on BIAcore 3000 and T200 systems using CM5 or biotin capture chips (GE Healthcare Ltd, UK). Streptavidin was coupled to CM5 sensor chips using standard NHS/EDC chemical linkage, followed by immobilization of biotinylated peptides. The levels of peptide immobilized were approximately 25 and 50 response units respectively of single and tandem tyrosine motifs to facilitate saturating binding and limitation of “bridging” [22], [45]. […] Equilibrium binding coefficients and dissociation and association rates were calculated using BIAevaluation and/or GraphPad Prism 5.4 software. […]

[5] = ten two-fold dilutions, top concentration 0.3 μM, one-site specific binding model, curve shown in Figure 2B, read-out: KD (Figure 2B)

binding of SHIP SH2 domain [4] | SMILES | Kd [1] | Kd [2] | Kd ([3]; HBS-EP pH 7.4, soluble EAT-2, immobilised phosphopeptide, mean, n and range in own columns of Table 4, read-out: KD) | Kd [3, 5]
 | CC[C@H](C)[C@H](NC(=O)[C@@H](NC(=O)[C@H](CC(C)C)NC(=O)[C@H](Cc1ccccc1)NC(=O)[C@H](CCC(=O)O)NC(=O)CCCC[C@@H]1SC[C@@H]2NC(=O)N[C@@H]21)[C@@H](C)O)C(=O)N[C@@H](Cc1ccc(OP(=O)(O)O)cc1)C(=O)N[C@@H](CCC(=O)O)C(=O)N[C@@H](CC(=O)O)C(=O)N[C@H](C(=O)N[C@@H](CCCCN)C(=O)N[C@@H](CC(=O)O)C(=O)O)C(C)C [CD244 ITSM1] | 360 nM | 130 nM | 60 nM | 12 nM
preference of SHIP SH2 domain | CC[C@H](C)[C@H](NC(=O)[C@H](CCSC)NC(=O)[C@H](CO)NC(=O)[C@H](Cc1ccc(OP(=O)(O)O)cc1)NC(=O)[C@@H](NC(=O)[C@@H](NC(=O)[C@H](CO)NC(=O)CNC(=O)CNC(=O)CCCC[C@@H]1SC[C@@H]2NC(=O)N[C@@H]21)[C@@H](C)O)[C@@H](C)CC)C(=O)N[C@@H](CCC(N)=O)C(=O)N[C@@H](CO)C(=O)O [CD244 ITSM2] |  |  |  | 
preference of SHIP SH2 domain | CC[C@H](C)[C@H](NC(=O)[C@H](CC(C)C)NC(=O)[C@H](CO)NC(=O)[C@H](Cc1ccc(OP(=O)(O)O)cc1)NC(=O)[C@H](CC(C)C)NC(=O)[C@@H](NC(=O)[C@H](Cc1ccc(O)cc1)NC(=O)[C@H](C)NC(=O)[C@@H]1CCCN1C(=O)CCCC[C@@H]1SC[C@@H]2NC(=O)N[C@@H]21)[C@@H](C)O)C(=O)N[C@@H](CCC(N)=O)C(=O)N1CCC[C@H]1C(=O)O [CD244 ITSM3] (Biotin-PAYTL[pY]SLIQP-OH; C-terminus assumed) |  |  |  | 
 | CC[C@H](C)[C@H](NC(=O)[C@H](CCC(=O)O)NC(=O)[C@@H](NC(=O)[C@@H](NC(=O)[C@H](CO)NC(=O)[C@H](Cc1ccc(OP(=O)(O)O)cc1)NC(=O)[C@@H](NC(=O)[C@@H](NC(=O)[C@H](CC(N)=O)NC(=O)[C@H](C)NC(=O)[C@@H]1CCCN1C(=O)CCCC[C@@H]1SC[C@@H]2NC(=O)N[C@@H]21)[C@@H](C)O)C(C)C)[C@@H](C)O)C(C)C)C(=O)O [CRACC ITSM2] (Biotin-PANTV[pY]STVEI-OH) |  |  |  | 1 nM
 | CC(C)C[C@H](NC(=O)[C@@H](NC(=O)[C@H](CC(=O)O)NC(=O)[C@@H](NC(=O)[C@H](Cc1ccc(OP(=O)(O)O)cc1)NC(=O)[C@H](CC(=O)O)NC(=O)[C@H](CO)NC(=O)[C@H](CC(N)=O)NC(=O)[C@H](CO)NC(=O)[C@H](CC(N)=O)NC(=O)CCCC[C@@H]1SC[C@@H]2NC(=O)N[C@@H]21)C(C)C)C(C)C)C(=O)N1CCC[C@H]1C(=O)O [EAT-2 Y127] (Biotin-NSNSD[pY]VDVLP-OH) | 87 nM | 18 nM |  | 
